US8128948B1, “Compositions and methods for attracting Anastrepha species” (The United States of America as represented by the …, priority 2007, dated 2012)

Legend:
Type in all cases: physicochemical
[1] = Hydrolysis of the dehydration analog; conditions: for distribution of products (rel. % of loss; x±s; n=6): hydrolysis of the dehydration analog, 3 day, pH 5.5, 35° C.
[2] = 1H-NMR monitored hydrolysis of suspensolide; conditions: 36 μL acetonitrile-d3 + 4 μl D2O; 27° C.
Method: Experiments were performed in a 2.0 mm capillary at 27° C. using a Bruker Avance 500 Console, Magnex 11.75 T/54 mm Magnet, and a 2.5 mm TXI probe (non spun). Spectra (64 scans) were acquired with 2.5 acquisition time and processed with ½ Hz line broadening.
Results and Discussion: Pentane extracts of male salivary glands that were added to water (pH 5.5) and rapidly stirred for 5 min at 25° C. yielded products within both phases that matched those obtained from pentane extraction of crops and oral secretions (FIG. 5). ^1H-Nuclear Magnetic Resonance (NMR) spectroscopy was then employed to directly observe the hydrolysis; the original vinyl and methyl proton signals disappeared over 3 h after a 4 μL addition of D2O to suspensolide in 36 μL acetonitrile-d3 (FIG. 6). In comparison, the loss of suspensolide in batch hydrolysis studies occurred much more rapidly (<2 min) over pH 3-10.

[3] = Batch hydrolysis of suspensolide in aqueous buffers
Method: Buffers at 25° C. were transferred (1 mL) to 9-mm amber crimp-top (Teflon®-sealed) 2-mL GC vials. Suspensolide in anhydrous acetonitrile or methanol (50 μL) was added to afford initial aqueous concentrations of 0.9 mM and the solution was rapidly mixed for 10 s on a vortex Genie® mixer. Aqueous samples (10 μL) were removed with a 25-μL syringe and combined with 2 μL ACN containing 6 μg (+)-sclareolide as an external standard for HPLC.
GC was used to quantify lactones at the conclusion of each experiment. Hexane (1 mL), containing […] of tetradecane as an internal standard, was added to the vials and extractable analytes were removed from the water by rapidly mixing for 2 min on a vortex Genie® mixer. Emulsions were broken with NaCl, after which the hexane layer was transferred to vials for analysis by GC. The remaining solution was concentrated to dryness via Speed Vac® and dissolved in a methanolic solution of diazomethane. Extraction with pentane and subsequently H2O (0.5 mL each) yielded methyl esters amenable to GC within the organic phase. Initial suspensolide concentrations were measured (quadruplicate) via analogous introduction into 1 mL hexane+internal standard.

With `C=C[C@@]1(C)CCC[C@]2(C)OC(=O)C[C@@H]12` [anastrephin, reference compound] the “distribution of products (rel. % of loss; x±s; n=6)” value [1] was 17.3±4.2%.

In the case of `C=CC1(C)CCCC(C)=C1CC(=O)O` (stereo not shown) [dehydration analog, 2,6-dimethyl-6-vinyl-cyclohexeneacetic acid], the loss on hydrolysis ([1]; 3 day time course, pH 5.5 and 35° C.) is reported as roughly 15%.

With `C=CC1(C)CCCC2(C)OC(=O)CC12` (stereo not shown) [epianastrephin, reference compound] the “distribution of products (rel. % of loss; x±s; n=6)” value [1] was 1.7±1.2%.

For `C/C1=C/COC(=O)C/C=C(/C)CCC1` [suspensolide, (3E,8E)-suspensolide], the “time over which suspensolide was hydrolyzed (1H-NMR)” value [2] was roughly 3 h, the “level of 7a-epimer “cis-fused” equivalents among hydrolysis products” value ([3]; FIG. 4) was less than 5% and the “epianastrephin to anastrephin ratio of γ-hydroxy acids formed by hydrolysis” value ([3]; in 18OH2 at pH 5, FIG. 13) was roughly 2.5. For the same compound, the “time for loss of suspensolide in batch hydrolysis” value ([3]; over pH 3-10) was less than 2 min, the “time for hydrolysis to product distribution III>II>>IV>>>I” value ([3]; pH 5-6 and 25° C.) was less than 2 min and the “epianastrephin to anastrephin product ratio of hydrolysis” value ([3]; pathways II and III, FIG. 4) was roughly 2.5.

For `C=CC1(C)CCCC2(C)OC(=O)CC12` (stereo not drawn) [“cis-fused” anastrephin], the “distribution of products (rel. % of loss; x±s; n=6)” value [1] was 5.8±4.2%.

In the case of `C=CC1(C)CCCC2(C)OC(=O)CC12` (stereo not drawn) [“cis-fused” epianastrephin], the “distribution of products (rel. % of loss; x±s; n=6)” value [1] is reported as 1.1±0.5%.

For “γ-hydroxy acid of anastrephin [anastrephin γ-hydroxy acid]”, the “distribution of products (rel. % of loss; x±s; n=6)” value [1] was 38.6±5.1%.

In the case of “γ-hydroxy acid of epianastrephin [epianastrephin γ-hydroxy acid]”, the “distribution of products (rel. % of loss; x±s; n=6)” value [1] is reported as 3.6±2.3%.
